The results in this text go back to EP4610269A1, “UROKINASE PLASMINOGEN ACTIVATOR SURFACE RECEPTOR (UPAR) LIGANDS FOR DIAGNOSTIC OR THERAPEUTIC USE” (3B Pharmaceuticals GmbH, priority 2024, dated 2025).

Data set [1] is described as follows: Plasma stability assay (mouse plasma). As to conditions: 37°C, LC-MS quantification; for remaining at 6 h, 9.8 µM: mouse plasma (sodium citrate 3.7%), read-out: % intact compound remaining after 6h incubation Mouse plasma. Type of data set: in vitro ADME. As to the method: (§1) In order to determine the stability of selected compounds of the invention in human and mouse plasma, a plasma stability assay was carried out. Such plasma stability assay measures degradation of compounds of the present invention in blood plasma. This is an important characteristic of a compound as compounds, with the exception of pro-drugs, which rapidly degrade in plasma, generally show poor in vivo efficacy. […] The stability is sufficient for the diagnostic, therapeutic and theragnostic use of these compounds according to the present invention.
(§2) The plasma stability samples were prepared by spiking 50 µl plasma aliquots (all sodium citrate 3.7%) with 1 µl of a 0.5 mM compound stock solution in DMSO. After vortexing the samples were incubated in a Thermomixer at 37°C for 0 and 6 hours. After incubation the samples were stored on ice until further treatment. All samples were prepared in duplicates.
A suitable internal standard was added to each sample (1 µl of a 0.5 mM stock solution in DMSO). Protein precipitation was performed using two different methods depending on the compound conditions as indicated in Table 13. • A) 250 µl of acetonitrile containing 1% trifluoroacetic acid was added. After incubation at room temperature for 30 min the precipitate was separated by centrifugation and 150 µl of the supernatant was diluted with 150 µl of 1% aqueous formic acid. • B) 150 µl of a zinc sulphate precipitation agent containing 78% 0.1 M zinc sulphate and 22% acetonitrile was added. After incubation at room temperature for 30 min the precipitate was separated by centrifugation. To 100 µl of the supernatant 10 µl of 1% formic acid was added followed by further incubation at 60°C for 10 min to complete the formation of the zinc chelate, if the compound contains a free DOTA moiety.
The determination of the analyte in the clean sample solutions was performed on an Agilent 1290 UHPLC system coupled to an Agilent 6530 Q-TOF mass spectrometer. The chromatographic separation was carried out on a Phenomenex BioZen XB-C18 HPLC column (50 x 2 mm, 1.7 µm particle size).
Two different elution gradients were applied using a mixture of 0.1% formic acid in water as eluent A and acetonitrile as eluent B: • A) 2% B to 41% in 7 min, 800 µl/min, 40°C. • B) 5% B to 50% B in 6 min, 800 µL/min, 40°C.
Mass spectrometric detection was performed in positive ion ESI mode by scanning the mass range from m/z 50 to 3000 with a sampling rate of 2 / sec.
(§3) From the mass spectrometric raw data the ion currents for the double or triple charged monoisotopic signal was extracted for both, the compound and the internal standard.
(§4) Quantitation was performed by external matrix calibration with internal standard using the integrated analyte signals.
(§5) Additionally, recovery was determined by spiking a pure plasma sample that only contained the internal standard after treatment with a certain amount of the compound.
(§6) Carry-over was evaluated by analysis of a blank sample (20% acetonitrile) after the highest calibration sample.
The result is stated as "% intact compound remaining after 6 h incubation" and means that from the amount of material at the start of the experiment the stated percentage is detected as unchanged material at the end of the experiment by LC-MS quantification. Since all compounds are more than 50% intact after 6 h they are considered as stable enough for diagnostic and therapeutic applications. Table 13: Results of the plasma stability assay

In a further data set the target is T1, human uPAR (uPAR-Fc) (Homo sapiens, UniProt Q03405).
T1 construct: comprising amino acids Leu23-Arg303 according to UniProt entry Q03405.1; purchased R&D Systems 10378-UK-100
T1 sequence (Q03405 23-303): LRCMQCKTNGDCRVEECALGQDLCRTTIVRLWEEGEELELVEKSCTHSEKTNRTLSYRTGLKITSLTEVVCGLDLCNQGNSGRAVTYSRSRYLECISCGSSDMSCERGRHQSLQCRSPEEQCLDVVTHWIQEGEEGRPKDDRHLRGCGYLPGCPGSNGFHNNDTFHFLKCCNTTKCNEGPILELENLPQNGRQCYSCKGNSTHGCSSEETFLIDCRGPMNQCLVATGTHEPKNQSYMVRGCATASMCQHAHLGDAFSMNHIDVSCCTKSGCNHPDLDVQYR
Nature of the data set: Surface plasmon resonance (SPR) assay, single cycle kinetics. Type of data set: binding. Conditions: pKD category for uPAR SPR activity assay; uPAR-Fc on Protein A-Chip, 25°C; read-out: pKD CAT (converted). An outline of the steps: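 uPAR-Fc (Leu23-Arg303 extracellular domains, human IgG1 Fc) captured on Protein A chip to ~2000 RU; single-cycle kinetics at 25°C in HEPES running buffer pH 7.4 with 0.1% DMSO. KD from double-referenced sensorgrams fitted to 1:1 Langmuir model, reported as pKD.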
Background: In SPR one partner is held on a chip, and binding of the other changes the refractive index at the surface.

Data set [2] can be described thus: Plasma stability assay (human plasma). Type of data set: in vitro ADME. Conditions: human plasma (sodium citrate 3.7%), 37°C, LC-MS quantification, read-out: % intact compound remaining after 6h incubation Human plasma. As to the method: as §1, §2
A suitable internal standard was added to each sample (1 µl of a 0.5 mM stock solution in DMSO). Protein precipitation was performed using two different methods depending on the compound conditions as indicated in Table 13. • A) 250 µl of acetonitrile containing 1% trifluoroacetic acid was added. […]
as §4, §5, §6
The result is stated as "% intact compound remaining after 6 h incubation" and means that from the amount of material at the start of the experiment the stated percentage is detected as unchanged material at the end of the experiment by LC-MS quantification. […]

The target in data set [3] is T2, uPAR-expressing HEC-265 human endometrial adenocarcinoma cells (Homo sapiens, UniProt Q03405).
T2 construct: Cell surface uPAR-expressing HEC-265 human endometrial adenocarcinoma cells; host or cells: HEC-265
T2 sequence (Q03405 23-335): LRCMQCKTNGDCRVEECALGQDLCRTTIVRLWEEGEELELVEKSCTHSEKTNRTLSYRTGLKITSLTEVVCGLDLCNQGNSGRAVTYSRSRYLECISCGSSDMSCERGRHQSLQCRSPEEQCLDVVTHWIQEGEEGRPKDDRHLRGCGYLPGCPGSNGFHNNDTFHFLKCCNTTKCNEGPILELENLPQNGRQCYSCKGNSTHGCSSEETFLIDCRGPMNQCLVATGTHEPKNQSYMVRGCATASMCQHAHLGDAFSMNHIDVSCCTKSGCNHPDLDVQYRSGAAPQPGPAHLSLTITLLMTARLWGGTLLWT
Nature of the data set: Competitive FACS binding assay. As to conditions: pIC50 category of FACS binding. An outline of the steps:
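HEC-265 cells incubated 1 h at 4 °C with 10 nM biotinylated uPAR peptide tracer plus increasing test compound, then stained with APC-streptavidin on ice. Median APC fluorescence by flow cytometry; 4PL fit gives pIC50.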

Data set [4] deals with T3, Recombinant soluble human NEP (Homo sapiens, UniProt P08473).
T3 construct: Recombinant soluble human NEP; purchased BioTechne, Wiesbaden, Germany
T3 sequence (P08473 52-750 limits assumed): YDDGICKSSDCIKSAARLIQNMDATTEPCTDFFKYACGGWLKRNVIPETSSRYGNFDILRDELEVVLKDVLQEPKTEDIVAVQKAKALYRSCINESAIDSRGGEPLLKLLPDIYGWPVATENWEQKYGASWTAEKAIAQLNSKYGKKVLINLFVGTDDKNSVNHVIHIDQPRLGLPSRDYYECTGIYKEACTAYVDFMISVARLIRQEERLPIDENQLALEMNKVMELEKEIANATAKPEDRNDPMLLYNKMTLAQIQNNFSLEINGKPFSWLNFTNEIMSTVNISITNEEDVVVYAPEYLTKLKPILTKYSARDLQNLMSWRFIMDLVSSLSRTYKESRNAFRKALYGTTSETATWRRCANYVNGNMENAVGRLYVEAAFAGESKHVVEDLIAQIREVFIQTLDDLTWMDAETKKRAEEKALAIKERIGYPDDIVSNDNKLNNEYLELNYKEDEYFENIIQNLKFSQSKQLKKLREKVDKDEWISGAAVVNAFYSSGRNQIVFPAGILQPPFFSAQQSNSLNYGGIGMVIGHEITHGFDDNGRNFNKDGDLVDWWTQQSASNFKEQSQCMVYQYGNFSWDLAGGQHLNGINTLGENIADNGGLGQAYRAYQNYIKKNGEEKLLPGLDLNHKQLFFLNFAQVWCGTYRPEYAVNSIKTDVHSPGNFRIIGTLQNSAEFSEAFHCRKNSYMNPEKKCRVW
Nature of the data set: Proteolytic stability assay against NEP. As to conditions: human NEP 100 ng/mL, compound 10 µM, 37°C, LC-MS quantification. Type of data set: in vitro ADME. As to the method:
To assess the stability of compounds against NEP, the compounds were subjected to an in vitro assay based on the protocol described by Edelson et al. (Edelson, Makhlina et al. 2013).
Recombinant soluble human NEP (BioTechne, Wiesbaden, Germany) at a concentration of 100 ng/mL was mixed with the compound (10 µM) and a stable internal standard (10 µM) and incubated at 37°C. After several time points, samples were taken and analyzed with LC-MS.
The determination of the analyte in the clean sample solutions was performed on an Agilent 1290 UHPLC system coupled to an Agilent 6530 Q-TOF mass spectrometer. The chromatographic separation was carried out on a Phenomenex BioZen XB-C18 HPLC column (50 × 2 mm, 1.7 µm particle size) with gradient elution using a mixture of 0.1% formic acid in water as eluent A and acetonitrile as eluent B (2% B to 41% in 7 min, 800 µl/min, 40°C). Mass spectrometric detection was performed in positive ion ESI mode by scanning the mass range from m/z 50 to 3000 with a sampling rate of 2 / sec.
as §3, §4
The activity of NEP was examined using a commercially available chromogenic substrate of NEP.
The result is stated as "% intact compound remaining after 24 h incubation" and means that from the amount of material at the start of the experiment the stated percentage is detected as unchanged material at the end of the experiment by LC-MS quantification. Since all compounds are more than 50% intact after 24 h they are considered as stable enough for diagnostic and therapeutic applications. Table 14: Results of the NEP stability assay

Where a SMILES comes first, the peptide text is derived from it. Bridges are numbered along the chain shown (N, C = ends). [ ]: non-standard residue; d: D form. The star is where a group is joined. GdDOTA = Gd(III) DOTA conjugate, O=C([O-])CN1CCN(CC(=O)[O-])CCN(CC(=O)*)CCN(CC(=O)[O-])CC1.[Gd+3]; DOTA = O=C(O)CN1CCN(CC(=O)O)CCN(CC(=O)*)CCN(CC(=O)O)CC1; Pro(cis-4-F) = O=C(O)[C@@H]1C[C@H](F)CN1; Dopa = N[C@@H](Cc1ccc(O)c(O)c1)C(=O)O; Hyp = O=C(O)[C@@H]1C[C@@H](O)CN1; Pentanoyl(4-Me) = CC(C)CCC(=O)*; Cit = NC(=O)NCCC[C@H](N)C(=O)O; Butoxycarbonyl = CCCCOC(=O)*; Nva = CCC[C@H](N)C(=O)O; Pentanoyl = CCCCC(=O)*

As to `CCCCOC(=O)N[C@H]1CSSC[C@@H](C(N)=O)NC(=O)[C@H](CCC)NC(=O)[C@H]([C@@H](C)CC)NC(=O)[C@@H]2C[C@@H](O)CN2C(=O)[C@@H]2C[C@H](F)CN2C(=O)[C@H](Cc2ccccc2)NC(=O)[C@H](Cc2ccc(O)c(O)c2)NC(=O)[C@H](CCCCNC(=O)CN2CCN(CC(=O)O)CCN(CC(=O)O)CCN(CC(=O)O)CC2)NC(=O)[C@H]([C@@H](C)O)NC1=O` [UPAR-249, Butoc-[Cys-Thr-Lys(DOTA)-Dopa-Phe-4Cfp-Hyp-Ile-Nva-Cys]-NH2] (Butoxycarbonyl-CTK(DOTA)[Dopa]F[Pro(cis-4-F)][Hyp]I[Nva]C-NH2; disulfide 1-10), the share remaining at 6 h, 9.8 µM in data set [1] worked out at 22%; in data set [2] it was 64%. For the same compound, the Kd at human uPAR (uPAR-Fc) was less than 1.58 nM. The same compound showed an IC50 in data set [3] of no more than 10 nM.

Take `CCCCC(=O)N[C@H]1CSSC[C@@H](C(N)=O)NC(=O)[C@H](CCC)NC(=O)[C@H]([C@@H](C)CC)NC(=O)[C@@H]2C[C@@H](O)CN2C(=O)[C@@H]2CCCN2C(=O)[C@H](Cc2ccccc2)NC(=O)[C@H](Cc2ccc(O)cc2)NC(=O)[C@H](CCCCNC(=O)CN2CCN(CC(=O)O)CCN(CC(=O)O)CCN(CC(=O)O)CC2)NC(=O)[C@H]([C@@H](C)O)NC1=O` [UPAR-301, Pent-[Cys-Thr-Lys(DOTA)-Tyr-Phe-Pro-Hyp-Ile-Nva-Cys]-NH2] (Pentanoyl-CTK(DOTA)YFP[Hyp]I[Nva]C-NH2; disulfide 1-10): the fraction remaining at 6 h, 9.8 µM in data set [1] was 91%; in data set [2], greater than 95%. In addition, on human uPAR (uPAR-Fc), the Kd was less than 1.58 nM. This compound had an IC50 in data set [3] of no more than 10 nM.

In the case of “iHex-[Cys-Cit-Lys(GdDOTA)-Tyr-Phe-Pro-ala-Ile-Leu-Cys]-NH2 ({Pentanoyl(4-Me)}-C[Cit]K(GdDOTA)YFP[dA]ILC-NH2; disulfide 1-10 (inferred); not fully specified) [UPAR-463]”, the “% intact compound remaining after 6h incubation Mouse plasma” value in data set [1] (mouse plasma (sodium citrate)) amounted to 81%. The “% intact compound remaining after 24h incubation” value in data set [4] was determined as 88%. Also, in data set [3], the “pIC50 CAT” value is given as “A (pIC50 values ≥8.0)”.

As a reminder, the fraction remaining is what is left of the initial amount, in per cent. As a reminder, the IC50 is the concentration needed to halve the response being measured. A high value points to lower potency.
